Results taken from paper PMC5612938, “A multiple biomarker assay for quality assessment of botanical drugs using a versatile microfluidic chip” (Scientific Reports, 2017).

Biological target: T1, ACE (from rabbit lung) (Oryctolagus cuniculus, UniProt P12822)
T1 construct: ACE (from rabbit lung); purchased Sigma-Aldrich; host or cells: rabbit lung
T1 sequence (P12822 34-1310): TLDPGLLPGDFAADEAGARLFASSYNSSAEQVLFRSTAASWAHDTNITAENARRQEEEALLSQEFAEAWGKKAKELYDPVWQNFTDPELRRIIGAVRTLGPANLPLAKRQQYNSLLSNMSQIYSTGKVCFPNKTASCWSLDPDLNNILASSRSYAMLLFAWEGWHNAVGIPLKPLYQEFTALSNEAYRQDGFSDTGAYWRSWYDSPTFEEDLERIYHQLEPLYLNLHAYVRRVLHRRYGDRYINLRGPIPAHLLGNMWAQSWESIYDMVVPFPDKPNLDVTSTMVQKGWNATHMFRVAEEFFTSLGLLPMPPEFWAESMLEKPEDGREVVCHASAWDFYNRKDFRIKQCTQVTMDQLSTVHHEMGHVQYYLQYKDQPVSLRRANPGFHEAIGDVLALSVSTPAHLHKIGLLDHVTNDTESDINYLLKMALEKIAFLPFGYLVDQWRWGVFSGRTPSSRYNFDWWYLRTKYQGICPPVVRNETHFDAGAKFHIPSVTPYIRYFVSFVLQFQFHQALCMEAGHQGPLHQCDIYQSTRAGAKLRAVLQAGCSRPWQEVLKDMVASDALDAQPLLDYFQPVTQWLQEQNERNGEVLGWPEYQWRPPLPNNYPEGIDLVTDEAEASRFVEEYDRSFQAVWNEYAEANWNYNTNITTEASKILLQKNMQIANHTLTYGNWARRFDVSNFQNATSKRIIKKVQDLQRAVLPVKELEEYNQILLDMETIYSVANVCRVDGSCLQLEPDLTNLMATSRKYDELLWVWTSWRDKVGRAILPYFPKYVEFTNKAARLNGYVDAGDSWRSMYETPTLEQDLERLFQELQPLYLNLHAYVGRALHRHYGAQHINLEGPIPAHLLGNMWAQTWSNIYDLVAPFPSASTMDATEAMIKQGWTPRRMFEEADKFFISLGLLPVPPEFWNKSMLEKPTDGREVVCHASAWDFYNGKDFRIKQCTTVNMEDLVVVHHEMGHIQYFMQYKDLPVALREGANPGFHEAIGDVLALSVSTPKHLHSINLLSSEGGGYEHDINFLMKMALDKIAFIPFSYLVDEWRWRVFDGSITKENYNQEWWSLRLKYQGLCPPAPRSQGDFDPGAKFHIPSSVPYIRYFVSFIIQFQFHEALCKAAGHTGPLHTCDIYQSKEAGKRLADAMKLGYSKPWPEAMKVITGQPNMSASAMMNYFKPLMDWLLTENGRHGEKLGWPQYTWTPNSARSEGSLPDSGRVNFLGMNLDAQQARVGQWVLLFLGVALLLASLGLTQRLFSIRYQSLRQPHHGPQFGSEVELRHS
Assay: on-chip ACE inhibition assay (FAPGG hydrolysis, absorbance decrease 340 nm)
Type: biochemical
Method: To enhance the performance of the on-chip assay, experimental parameters such as concentrations of enzymes and substrates, substrate reaction time, and incubation time of samples and enzymes were stepwise optimized.
The optimized protocol was first applied to assess the quality of 11 batches of QSYQ intermediates (Table 1). Enzyme inhibition (in percentages) was employed as an indicator of drug quality and calculated according to the following equations: thrombin inhibition (%) = [1 − (AQSYQ/Ablank)] × 100; ACE inhibition (%) = [1 − (ΔAQSYQ/ΔAblank)] × 100; where AQSYQ and Ablank were the absorbance of the test sample and the blank sample after the enzymatic reaction (the background value was subtracted), and ΔAQSYQ and ΔAblank were the absorbance decrease between 0 min and 30 min of the samples.
Thrombin (from human plasma), ACE (from rabbit lung), FAPGG and captopril were purchased from Sigma-Aldrich (St. Louis, USA). […] AEBSF-HCl was purchased from Selleckchem (Houston, USA). Trizma base (Tris) was obtained from Sangon Biotech (Shanghai, China) and dimethyl sulfoxide (DMSO) from J&K Scientific (Beijing, China). All other chemicals were purchased from Sinopharm Chemical (Shanghai, China) unless otherwise indicated. 0.2 M Phosphate buffer (PB, pH 6.5), and 50 mM Tris-HCl buffer (200 mM NaCl, pH 8.3) were prepared as assay buffers for thrombin and ACE, respectively.
MBs (10 mg/mL) were diluted 10 times in PB or Tris-HCl buffer, and 10 μL of the diluted MBs (1 mg/mL) were injected into one channel of the chip using a syringe infusion pump (Harvard Apparatus, USA) and retained by an external magnet. Then, 10 μL of thrombin or ACE solution was added and incubated with MBs for two hours at room temperature to form enzyme-MB complexes. The magnet was manually controlled to move MBs back and forth to enhance the ratio of reaction. Subsequently, MBs were washed twice in assay buffer and magnetically transferred to the other channel through the fluidic bridge, whose opening and closing was controlled by a pneumatic valve. Next, 10 μL of sample solutions of tested drug and 10 μL of enzymatic substrate were sequentially infused to the channel by the pump and incubated with the enzyme. When the enzymatic reaction was finished, the MBs were retained in the channel, and air was injected into the channel from the inlet using a syringe to push all the reacted solution to a 384-well plate. […] Moreover, after detection, the reaction channel was washed three times by assay buffer to remove unbound constituents. 20 μL of 80% aqueous methanol was then injected and incubated with MBs for one hour to dissociate the bound constituents. The resulting solutions of replicates were combined, evaporated by a centrifugal evaporator, reconstituted in 80% aqueous methanol, centrifuged at 10,000 rpm for 10 min, and analyzed by LC-MS for chemical identification.

For `O=C(O)C(O)Cc1ccc(O)c(O)c1` (centres unmarked) [Danshensu], the “ACE inhibition (in words)” value (at tested concentrations) was “showed ACE inhibitions” and the inhibition rate (for ACE, maximum inhibition rate observed in the assay) was 64.2%.
